Test results: ChEMBL document CHEMBL1124865, “Synthesis and biological evaluation of a series of parenteral 3'-quaternary ammonium cephalosporins” (J Med Chem, 1990)
Converted amounts (≈) assume the structure as drawn.

Key:
Format in all cases: functional
Enterobacter cloacae [1] = test: Antibacterial activity against Enterobacter cloacae 265A
Escherichia coli [2] = test: Antibacterial activity against Escherichia coli EC14
Enterobacter cloacae [3] = test: Antibacterial activity against Enterobacter cloacae EB5; conditions: Enterobacter cloacae; read-out: MIC
Escherichia coli [4] = test: Antibacterial activity against Escherichia coli TEM; conditions: Escherichia coli; read-out: MIC
Klebsiella pneumoniae [5] = test: microbe, parasite or virus in culture
Description: Antibacterial activity against Klebsiella pneumoniae 1082E

Klebsiella pneumoniae [6] = test: Antibacterial activity against Klebsiella pneumoniae X26
Pseudomonas aeruginosa [7] = test: In vivo efficacy against Pseudomonas aeruginosa infected mice treated at 1 hr and 5 hr post infection; conditions: Pseudomonas aeruginosa; read-out: ED50
Staphylococcus aureus [8] = test: In vivo efficacy against Staphylococcus aureus infected mice treated at 1 hr and 5 hr post infection
Escherichia coli [9] = test: In vivo efficacy against Escherichia coli infected mice treated at 1 hr and 5 hr post infection; conditions: Escherichia coli; read-out: ED50
Escherichia coli [10] = test: In vivo efficacy against Escherichia coli infections in mice; conditions: Escherichia coli; read-out: MIC
Pseudomonas aeruginosa [11] = test: In vivo efficacy against Pseudomonas aeruginosa infections in mice; conditions: Pseudomonas aeruginosa; read-out: MIC
Staphylococcus aureus [12] = test: In vivo efficacy against Staphylococcus aureus infections in mice
Pseudomonas aeruginosa [13] = test: Antibacterial activity against Pseudomonas aeruginosa X528
Pseudomonas aeruginosa [14] = test: Antibacterial activity against Pseudomonas aeruginosa PS18
Staphylococcus aureus [15] = test: Antibacterial activity against penicillin G resistance Staphylococcus aureus
Staphylococcus aureus [16] = test: Antibacterial activity against penicillin G susceptible Staphylococcus aureus
Streptococcus pneumoniae = test: Antibacterial activity against Streptococcus pneumoniae; conditions: Streptococcus pneumoniae; read-out: MIC
Serratia marcescens = test: Antibacterial activity against Serratia marcescens SE3
Streptococcus pyogenes = test: Antibacterial activity against Streptococcus pyogenes; conditions: Streptococcus pyogenes; read-out: MIC
Enterococcus faecium = test: Antibacterial activity against Enterococcus faecium; conditions: Enterococcus faecium; read-out: MIC
[17] = Enterobacter cloacae, read-out: MIC
[18] = Escherichia coli, read-out: MIC
[19] = Klebsiella pneumoniae, read-out: MIC
[20] = Staphylococcus aureus, read-out: ED50
[21] = Staphylococcus aureus, read-out: MIC
[22] = Pseudomonas aeruginosa, read-out: MIC
[23] = Serratia marcescens, read-out: MIC

## CO/N=C(\C(=O)N[C@@H]1C(=O)N2C(C(=O)[O-])=C(C[n+]3cccc(CC(=O)O)c3)CS[C@H]12)c1csc(N)n1 (stereo in doubt; 14)
Enterobacter cloacae [1]
  MIC: 16 µg/mL (≈ 30 µM)
Escherichia coli [2]
  MIC: 0.06 µg/mL (≈ 0.113 µM)
Enterobacter cloacae [3]
  MIC: 0.25 µg/mL (≈ 0.469 µM)
Escherichia coli [4]
  MIC: 0.06 µg/mL (≈ 0.113 µM)
Klebsiella pneumoniae [5]
  MIC: 16 µg/mL (≈ 30 µM)
Klebsiella pneumoniae [6]
  MIC: 0.03 µg/mL (≈ 0.0563 µM)
Pseudomonas aeruginosa [7]
  ED50: 20 mg/kg
Staphylococcus aureus [8]
  ED50: 1.4 mg/kg
Escherichia coli [9]
  ED50: 0.09 mg/kg
Escherichia coli [10]
  MIC: 0.06 µg/mL (≈ 0.113 µM)
Pseudomonas aeruginosa [11]
  MIC: 8 µg/mL (≈ 15 µM)
Staphylococcus aureus [12]
  MIC: 1 µg/mL (≈ 1.88 µM)
Pseudomonas aeruginosa [13]
  MIC: 2 µg/mL (≈ 3.76 µM)
Pseudomonas aeruginosa [14]
  MIC: 8 µg/mL (≈ 15 µM)
Staphylococcus aureus [15]
  MIC: 2 µg/mL (≈ 3.76 µM)
Staphylococcus aureus [16]
  MIC: 1 µg/mL (≈ 1.88 µM)
Streptococcus pneumoniae
  MIC: 0.015 µg/mL (≈ 0.0282 µM)
Serratia marcescens
  MIC: 0.125 µg/mL (≈ 0.235 µM)
Streptococcus pyogenes
  MIC: 0.015 µg/mL (≈ 0.0282 µM)
Enterococcus faecium
  MIC: > 128 µg/mL

## CO/N=C(\C(=O)N[C@@H]1C(=O)N2C(C(=O)[O-])=C(C[n+]3ccc(C(N)=S)cc3)CS[C@H]12)c1csc(N)n1
Enterobacter cloacae [1]; [17]
  MIC: 8 µg/mL (≈ 15 µM)
Escherichia coli [2]; [18]
  MIC: 0.03 µg/mL (≈ 0.0562 µM)
Enterobacter cloacae [3]
  MIC: 0.125 µg/mL (≈ 0.234 µM)
Escherichia coli [4]
  MIC: 0.03 µg/mL (≈ 0.0562 µM)
Klebsiella pneumoniae [5]; [19]
  MIC: 8 µg/mL (≈ 15 µM)
Klebsiella pneumoniae [6]; [19]
  MIC: 0.03 µg/mL (≈ 0.0562 µM)
Pseudomonas aeruginosa [7]
  ED50: 7.2 mg/kg
Staphylococcus aureus [8]; [20]
  ED50: 1.4 mg/kg
Escherichia coli [9]
  ED50: < 0.16 mg/kg
Escherichia coli [10]
  MIC: 0.03 µg/mL (≈ 0.0562 µM)
Pseudomonas aeruginosa [11]
  MIC: 8 µg/mL (≈ 15 µM)
Staphylococcus aureus [12]; [21]
  MIC: 1 µg/mL (≈ 1.87 µM)
Pseudomonas aeruginosa [13]; [22]
  MIC: 1 µg/mL (≈ 1.87 µM)
Pseudomonas aeruginosa [14]; [22]
  MIC: 2 µg/mL (≈ 3.75 µM)
Staphylococcus aureus [15]; [21]
  MIC: 2 µg/mL (≈ 3.75 µM)
Staphylococcus aureus [16]; [21]
  MIC: 1 µg/mL (≈ 1.87 µM)
Streptococcus pneumoniae
  MIC: 0.015 µg/mL (≈ 0.0281 µM)
Serratia marcescens; [23]
  MIC: 0.06 µg/mL (≈ 0.112 µM)
Streptococcus pyogenes
  MIC: < 0.008 µg/mL
Enterococcus faecium
  MIC: > 128 µg/mL

## CO/N=C(\C(=O)N[C@@H]1C(=O)N2C(C(=O)[O-])=C(C[n+]3ccc4c(O)cccc4c3)CS[C@H]12)c1csc(N)n1
Enterobacter cloacae [1]; [17]
  MIC: 16 µg/mL (≈ 29.6 µM)
Escherichia coli [2]; [18]
  MIC: 0.015 µg/mL (≈ 0.0277 µM)
Enterobacter cloacae [3]
  MIC: 0.125 µg/mL (≈ 0.231 µM)
Escherichia coli [4]
  MIC: 0.03 µg/mL (≈ 0.0555 µM)
Klebsiella pneumoniae [5]; [19]
  MIC: 8 µg/mL (≈ 14.8 µM)
Klebsiella pneumoniae [6]; [19]
  MIC: < 0.008 µg/mL
Pseudomonas aeruginosa [7]
  ED50: > 50 mg/kg
Staphylococcus aureus [8]; [20]
  ED50: 2 mg/kg
Escherichia coli [9]
  ED50: < 0.03 mg/kg
Escherichia coli [10]
  MIC: 0.015 µg/mL (≈ 0.0277 µM)
Pseudomonas aeruginosa [11]
  MIC: 8 µg/mL (≈ 14.8 µM)
Staphylococcus aureus [12]; [21]
  MIC: 1 µg/mL (≈ 1.85 µM)
Pseudomonas aeruginosa [13]; [22]
  MIC: 8 µg/mL (≈ 14.8 µM)
Pseudomonas aeruginosa [14]; [22]
  MIC: 8 µg/mL (≈ 14.8 µM)
Staphylococcus aureus [15]; [21]
  MIC: 2 µg/mL (≈ 3.7 µM)
Staphylococcus aureus [16]; [21]
  MIC: 1 µg/mL (≈ 1.85 µM)
Streptococcus pneumoniae
  MIC: 0.05 µg/mL (≈ 0.0925 µM)
Serratia marcescens; [23]
  MIC: 0.25 µg/mL (≈ 0.462 µM)
Streptococcus pyogenes
  MIC: < 0.008 µg/mL
Enterococcus faecium
  MIC: 128 µg/mL (≈ 237 µM)

## CO/N=C(\C(=O)N[C@@H]1C(=O)N2C(C(=O)[O-])=C(C[n+]3cccc4ccc(O)cc43)CS[C@H]12)c1csc(N)n1
Enterobacter cloacae [1]; [17]
  MIC: 8 µg/mL (≈ 14.8 µM)
Escherichia coli [2]; [18]
  MIC: 0.06 µg/mL (≈ 0.111 µM)
Enterobacter cloacae [3]
  MIC: 0.25 µg/mL (≈ 0.462 µM)
Escherichia coli [4]
  MIC: 0.125 µg/mL (≈ 0.231 µM)
Klebsiella pneumoniae [5]; [19]
  MIC: 4 µg/mL (≈ 7.4 µM)
Klebsiella pneumoniae [6]; [19]
  MIC: 0.03 µg/mL (≈ 0.0555 µM)
Pseudomonas aeruginosa [7]
  ED50: > 50 mg/kg
Staphylococcus aureus [8]; [20]
  ED50: 4 mg/kg
Escherichia coli [9]
  ED50: 0.05 mg/kg
Escherichia coli [10]
  MIC: 0.06 µg/mL (≈ 0.111 µM)
Pseudomonas aeruginosa [11]
  MIC: 16 µg/mL (≈ 29.6 µM)
Staphylococcus aureus [12]; [21]
  MIC: 4 µg/mL (≈ 7.4 µM)
Pseudomonas aeruginosa [13]; [22]
  MIC: 16 µg/mL (≈ 29.6 µM)
Pseudomonas aeruginosa [14]; [22]
  MIC: 32 µg/mL (≈ 59.2 µM)
Staphylococcus aureus [15]; [21]
  MIC: 8 µg/mL (≈ 14.8 µM)
Staphylococcus aureus [16]; [21]
  MIC: 4 µg/mL (≈ 7.4 µM)
Streptococcus pneumoniae
  MIC: 0.06 µg/mL (≈ 0.111 µM)
Serratia marcescens; [23]
  MIC: 0.5 µg/mL (≈ 0.925 µM)
Streptococcus pyogenes
  MIC: 0.03 µg/mL (≈ 0.0555 µM)
Enterococcus faecium
  MIC: > 128 µg/mL
